# Laboratory results: PubChem BioAssay (NCI)
#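 These data come from cells grown in 96-well plates and exposed to compound for 48 hours at five concentrations. GI50 marks 50% less growth. At the TGI there is no net growth.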
# Tests used:
# Assay in all cases: DTP human tumour cell line panel, 48 h
# [1] = tested on: A549 NSCLC
# [2] = tested on: HCT-116 colon
# [3] = tested on: OVCAR-3 ovarian
# [4] = tested on: SK-MEL-2 melanoma
# [5] = tested on: A498 renal
# [6] = tested on: M14 melanoma
# [7] = tested on: NCI-H226 lung
# [8] = tested on: HCC-2998 colon
# [9] = tested on: HL-60(TB) leukemia
# [10] = tested on: SF-295 CNS
# [11] = tested on: 786-0 renal
# [12] = tested on: CCRF-CEM leukemia
# [13] = tested on: MDA-MB-231 breast
# [14] = tested on: HS 578T breast
# [15] = tested on: NCI-H460 lung
# [16] = tested on: SK-MEL-28 melanoma
# [17] = tested on: MCF7 breast
# [18] = tested on: U251 CNS
# [19] = tested on: SK-OV-3 ovarian
# [20] = tested on: MALME-3M melanoma
# [21] = tested on: MDA-MB-435
# [22] = tested on: UO-31 renal
# [23] = tested on: COLO 205 colon
# [24] = tested on: SW-620 colon
# [25] = tested on: TK-10 renal
# [26] = tested on: SR leukemia
# [27] = tested on: SNB-19 CNS
# [28] = tested on: K-562 leukemia
# [29] = tested on: MOLT-4 leukemia
# [30] = tested on: KM12 colon
# [31] = tested on: HOP-92 NSCLC
# [32] = tested on: NCI/ADR-RES ovarian
# [33] = tested on: ACHN renal
# [34] = tested on: SN12C renal
# [35] = tested on: OVCAR-4 ovarian
# [36] = tested on: RXF 393 renal
# [37] = tested on: BT-549 breast
# [38] = tested on: OVCAR-8 ovarian
# [39] = tested on: PC-3 prostate
# [40] = tested on: HT29 colon
# [41] = tested on: LOX IMVI melanoma
# [42] = tested on: OVCAR-5 ovarian
# [43] = tested on: CAKI-1 renal
# [44] = tested on: IGROV1 ovarian
# [45] = tested on: SF-539 CNS
# [46] = tested on: HCT-15 colon
# [47] = tested on: NCI-H522 lung
# [48] = tested on: SF-268 CNS
# [49] = tested on: HOP-62 NSCLC
# [50] = tested on: T-47D breast
# [51] = tested on: SK-MEL-5 melanoma
# [52] = tested on: EKVX NSCLC
# [53] = tested on: SNB-75 CNS
# [54] = tested on: UACC-257 melanoma
# [55] = tested on: RPMI-8226 leukemia
# [56] = tested on: DU-145 prostate
smiles,measurement,setting,value
O=C1C2=C(C(=O)c3c(O)cccc31)C(c1ccco1)c1sc(=O)[nH]c1S2 (stereo unspecified),GI50,[1],1.78 µM
same,TGI,[1],3.63 µM
same,GI50,[2],2.36 µM
same,GI50,[3],2.86 µM
same,TGI,[3],14 µM
same,GI50,[4],3.51 µM
same,TGI,[4],16.4 µM
same,GI50,[5],3.48 µM
same,TGI,[5],9.69 µM
same,GI50,[6],1.06 µM
same,TGI,[6],2.37 µM
same,GI50,[7],2.18 µM
same,TGI,[7],5.46 µM
same,GI50,[8],2.5 µM
same,TGI,[8],5.51 µM
same,GI50,[9],1.82 µM
same,TGI,[9],6.09 µM
same,GI50,[10],1.98 µM
same,TGI,[10],3.59 µM
same,GI50,[11],7.09 µM
same,TGI,[11],24.2 µM
same,GI50,[12],3.29 µM
same,TGI,[12],> 100 µM
same,GI50,[13],2.73 µM
same,TGI,[13],9.08 µM
same,GI50,[14],2.2 µM
same,TGI,[14],6.56 µM
same,GI50,[15],1.54 µM
same,TGI,[15],3.48 µM
same,GI50,[16],1.87 µM
same,TGI,[16],3.72 µM
same,GI50,[17],1.39 µM
same,TGI,[17],3.34 µM
same,GI50,[18],3.07 µM
same,TGI,[18],10.1 µM
same,GI50,[19],15.5 µM
same,TGI,[19],29.6 µM
same,GI50,[20],0.755 µM
same,TGI,[20],2 µM
same,GI50,[21],1.16 µM
same,TGI,[21],2.47 µM
same,GI50,[22],2.56 µM
same,TGI,[22],13.5 µM
same,GI50,[23],1.89 µM
same,TGI,[23],3.61 µM
same,GI50,[24],3.28 µM
same,TGI,[24],10.5 µM
same,GI50,[25],12.3 µM
same,TGI,[25],26.4 µM
same,GI50,[26],3.05 µM
same,TGI,[26],69.5 µM
same,GI50,[27],2.6 µM
same,TGI,[27],7.33 µM
same,GI50,[28],2.84 µM
same,TGI,[28],> 100 µM
same,GI50,[29],2.71 µM
same,TGI,[29],9.88 µM
same,GI50,[30],3.71 µM
same,TGI,[30],31.3 µM
same,GI50,[31],3.15 µM
same,TGI,[31],8.08 µM
same,GI50,[32],3.02 µM
same,TGI,[32],12.3 µM
same,GI50,[33],4.08 µM
same,TGI,[33],16.1 µM
same,GI50,[34],1.74 µM
same,TGI,[34],3.49 µM
same,GI50,[35],1.79 µM
same,TGI,[35],3.95 µM
same,GI50,[36],2.02 µM
same,TGI,[36],5.57 µM
same,GI50,[37],1.64 µM
same,TGI,[37],3.2 µM
same,GI50,[38],2.46 µM
same,TGI,[38],8.97 µM
same,GI50,[39],2.75 µM
same,TGI,[39],21.6 µM
same,GI50,[40],3.31 µM
same,TGI,[40],9.25 µM
same,GI50,[41],2.21 µM
same,TGI,[41],7.55 µM
same,GI50,[42],2.13 µM
same,TGI,[42],4.58 µM
same,GI50,[43],3.29 µM
same,TGI,[43],13.9 µM
same,GI50,[44],2.51 µM
same,TGI,[44],6.14 µM
same,GI50,[45],1.93 µM
same,TGI,[45],3.69 µM
same,GI50,[46],1.75 µM
same,TGI,[46],3.88 µM
same,GI50,[47],2.31 µM
same,TGI,[47],6.99 µM
same,GI50,[48],3.48 µM
same,TGI,[48],19.2 µM
same,GI50,[49],2.04 µM
same,TGI,[49],3.74 µM
same,GI50,[50],2.87 µM
same,TGI,[50],13 µM
same,GI50,[51],1.59 µM
same,TGI,[51],3 µM
same,GI50,[52],6.75 µM
same,TGI,[52],19.4 µM
same,GI50,[53],3.17 µM
same,TGI,[53],7.61 µM
same,GI50,[54],1.57 µM
same,TGI,[54],3.26 µM
same,GI50,[55],2.62 µM
same,TGI,[55],9.83 µM
same,GI50,[56],1.55 µM
same,TGI,[56],3.01 µM
